In one assay the test system is RIPK1. The note with it: phosphorylation mimicked by a glutamate residue; cited from earlier work.
Assay [1] has as its target T1, MerTK (Homo sapiens, UniProt Q12866).
T1 sequence (Q12866 528-999): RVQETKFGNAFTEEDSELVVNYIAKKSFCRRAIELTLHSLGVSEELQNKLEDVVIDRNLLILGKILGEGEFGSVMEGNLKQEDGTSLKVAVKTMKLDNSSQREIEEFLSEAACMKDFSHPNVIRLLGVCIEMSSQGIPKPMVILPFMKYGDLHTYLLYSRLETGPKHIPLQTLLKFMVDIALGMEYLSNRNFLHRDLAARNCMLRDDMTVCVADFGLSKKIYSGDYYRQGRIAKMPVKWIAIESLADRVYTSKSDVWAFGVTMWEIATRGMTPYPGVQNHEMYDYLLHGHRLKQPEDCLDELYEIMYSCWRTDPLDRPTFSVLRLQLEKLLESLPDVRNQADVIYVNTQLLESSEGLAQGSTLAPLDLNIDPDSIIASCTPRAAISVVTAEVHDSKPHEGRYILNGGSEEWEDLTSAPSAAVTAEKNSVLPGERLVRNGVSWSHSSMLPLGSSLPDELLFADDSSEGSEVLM
Put plainly: Surface plasmon resonance, MerTK. The format is binding. The following applies: read-out: residence times. On the technique in general: SPR reads the build-up and loss of mass on a sensor chip optically.

Assay [2] concerns MerTK. The following applies: cited from earlier work.
The target in a further assay is T2, dephosphorylated MerTK (Homo sapiens, UniProt Q12866).
T2 sequence (Q12866 528-999): T1 sequence (Q12866 528-999)
Put plainly: Surface plasmon resonance, dephosphorylated MerTK. The format is binding.

Each structure is given as a SMILES string.

Take `CN1C(=O)C(Cc2c[nH]c3ccccc23)NC1=S` (stereo not shown) [Nec-1]: the “drop of affinity for RIPK1 upon phosphorylation of Ser161” value in the assay with RIPK1 is listed as about 10 fold. For the compound `CCc1nc(C(N)=O)c(Nc2ccc(N3CCC(N4CCN(C)CC4)CC3)c(OC)c2)nc1NC1CCOCC1` [gilteritinib], the residence time at MerTK [1] was under 1 min. The “off-target activity against MerTK” value with MerTK [2] was “double-digit nanomolar”. The compound `Cc1ccc(C(=O)Nc2ccc(Oc3cc4cnn(C)c4cc3-c3cn[nH]c3)c(F)c2)c(=O)n1-c1ccc(F)cc1` [merestinib] registered a residence time on dephosphorylated MerTK of over 120 min.
